Results published in patent EP0272929B1, “Enkephalinase for therapeutic use” (GENENTECH, INC., priority 1986, dated 1988).
Like-named read-outs stand apart in the source and are kept apart here.

Tests used:
[1] = system: ferret tracheal smooth muscle; test: Isometric tension of isolated tracheal smooth muscle rings (contraction by peptides, effect of inhibitors); assay type: cell-based
Protocol: (§1) Twenty-seven ferrets were anesthetized with pentobarbital sodium (45-60 mg/kg, i.p.), and the trachea were removed. Transverse rings (8 mm long) were cut from the trachea and mounted in glass chambers filled with 14 ml of Krebs-Henseleit solution of the following composition (in mMoles/L): NaCl 118, KCl 5.9, CaCl₂ 2.5, MgSO₄ 1.2, NaH₂PO4 1.2, NaHCO₃ 25.5, glucose 5.6, 0.1% bovine serum albumin, and penicillin-streptomycin (100 Units/ml). The soluiton was maintained at 37°C and was aerated continuously in a mixture of 95% O₂-5% CO₂, which produced a pH of 7.4. Six tracheal rings were studied concurrently.
(§2) The tracheal rings were connected to strain gauges (Grass FT03) for continuous recording of isometric tension, and the rings were placed between two rectangular platinum electrodes (6 x 40 mm) for electrical field stimulation. The rings were initially stretched to a tension of 20 g for 30 seconds and were then allowed to equilibrate for 1 hour while resting tension was adjusted to 4 g (Skoogh, B-E. et al., J. Appl. Physiol. 53: 253-257 [1982]). During equilibration, the medium was changed every 15 minutes. […] Id.
The responsiveness to substance P (using concentrations ranging from 10⁻⁸ M to 10⁻⁵ M) and to leu-thiorphan and cumulative dose-response curves to substance P (Peninsula Labs) were obtained. Each succeeding concentration of substance P was added after contraction reached a plateau. After completion of the first dose-response curve to substance P, leu-thiorphan (10⁻⁵ M, Squibb Pharmaceutical) was added to the organ bath. Following a 15 minute incubation, a second dose-response curve to substance P was obtained.
The N-terminal fragment, substance P₁₋₉ was studied because enkephalinase cleaves substance P between the 9 and 10 positions (Matsas, R. et al., Proc. Natl. Acad. Sci. [USA] 80: 3111-3115 [1983]), generating that fragment. (10⁻⁵ M Peninsula Labs). Experiments were also carried out with (DPro², DTrp^7,9)-substance P (10⁻⁵ M) (Peninsula Labs), a substance P antagonist (Hakanson, R. et al., Br. J. Pharmac. 77: 697-700 [1982]) by adding the antagonist after the response to substance P (10⁻⁶ M) and leu-thiorphan (10⁻⁵ M) reached a plateau.
Data were expressed as mean ± SE. For the dose-response curves to substance P, the means between two groups at each concentration were compared by a paired t test. For the studies of electrical field stimulation, responses were compared by one way analysis of variance and Newman-Keuls multiple range test. Significance was accepted at P < 0.05. […]

[2] = system: ferret tracheal smooth muscle; test: Electrical field stimulation-induced contraction of isolated tracheal smooth muscle; assay type: cell-based; conditions: inhibitor 10⁻⁵ M, 15 min; tachykinins 10⁻⁷ M
Protocol: as §2
Increasing concentrations of leu-thiorphan (10⁻¹¹ to 10⁻⁴ M) were added and the stimuli repeated to determine whether leu-thiorphan modulated electrical field stimulation-induced contractions. […] After determining control responses to electrical field stimulation (5 Hz), leu-thiorphan (10⁻⁵ M; 15 min) was added, the stimulus repeated, (DPro²,DTrp^7,9)substance P, the substance P antagonist (10⁻⁵ M; 15 min; Peninisula Labs) was added, and the stimulus was repeated.
(§3) Data were expressed as mean ± SE. For the dose-response curves to tachykinins the means between two groups at each concentration were analyzed by an unpaired t test. For the study of electrical field stimulation, responses were compared by one way analysis of variance and Newman-Keuls multiple range test. Significance was accepted at p<0.05.

ferret trachea [3] = test: Mucus secretion from ferret tracheal segments in Ussing-type chambers (release of 35SO4-labeled macromolecules, flux of bound SO4); assay type: cell-based; conditions: for potentiation of substance P-induced secretion: 10 µg/ml each, bestatin 10⁻⁵M (Fig. 4)
Protocol: (§4) Mucus secretion from tracheal segments of 36 ferrets was measured using methods described earlier (Borson, D.B. et al., J. Appl. Physiol. 57: 457-466 [1984]). Briefly, after anesthetizing adult male ferrets weighing 1-2 kg with sodium pentobarbital (45-60 mg/kg, ip), the trachea was removed and washed in medium 199/Earles HCO₃ bubbled with 95% O₂ - 5% CO₂ at 38°C. Tracheal segments were mounted in plastic Ussing-type chambers connected to perfusion chambers made of siliconized glass (MRA Inc., Clearwater, Florida). After exposing both sides to medium 199, 0.167 mCi Na₂.³⁵SO₄ was added to the submucosal side. At 15 minute intervals, the medium was drained from the luminal side and replaced with fresh unlabeled medium. Each sample was placed in dialysis tubing (Spectropore no. D1615-1; MW cutoff: 12-14,000) and exhaustively dialyzed with the rest of the samples from the experiment against at least 6 changes of distilled water (4 liters each) containing excess unlabeled SO₄ and sodium azide (10 mg/L) to prevent bacterial degradation of the macromolecules. After dialysis, the bound radioactivity of each sample was determined using a Beckman Instruments beta counter (model LS 7500). Molecular weight profiles of the materials secreted were determined by first desalting samples using a Sephadex G-50 column, then concentrating carbohydrate-containing molecules on DEAE Sephacel, and determining apparent molecular size under denaturing conditions (4 M guanidine, 10mM 2-mercaptoethanol, 0.1% Triton X-100) using a Sepharose CL-6B column.
(§5) Characteristics of the response to substance P including the time course, concentration dependence, and reproducibility were studied. Tracheal segments from 8 ferrets were incubated in the presence of radiolabel for 3 hours to which were added different concentrations of substance P (10⁻⁹M to 10⁻⁵M; Peninisula Labs, Belmont, CA). […] All treatments were randomized with regard to the site of sampling in the trachea to eliminate systematic bias.
(§6) The effects of endogenous proteinases were studied by incubating at least two tissues from each of 4 ferrets for 30 minutes in medium for 2.5 hours and adding a combination of nine (9) proteinase inhibitors to the submucosal side of each tissue (10 µg/mL each). The inhibitors used included leupeptin, antipain, pepstatin A, thiorphan, substance P₁₋₉ (Growcott, J.W. and Tarpey, A.V. Eur. J. Pharm. 84: 107-109 [1982]) and the angiotensin converting enzyme inhibitor, teprotide (Peninsula labs), aprotonin, BSA, and bacitracin (Sigma). Thirty minutes after addition of inhibitor, substance P (10⁻⁶M) was added to the submucosal side. […] The mean responses to substance P in the presence of inhibitors was compared with the mean responses of two control segments from each of the same animals.
(§7) The concentration-dependence of enkephalinase inhibition was explored by adding thiorphan in different concentrations to different tissues. To determine whether the secretory effect of substance P might be mediated indirectly via the release of endogenous enkephalins, we tested the effects of met-enkephalin (Peninsula Labs) on secretory responses.
(§8) We calculated the flux of bound SO₄ (^JSO₄) from the cpm in the dialyzed samples according to the equation modified from (Corrales, R.J. et al., J. Appl. Physiol. 56: 1076-1082 [1985]): ()^J SO4 (pmol SO4 (/cm)^2 /h) =(((cpm recovered/15 min x 4) x (811 x 10)^6 pmol cold SO4 /5mL))/((0.5 cm)^2 x cpm in 5.0 mL of hot-side medium) [formula]

neutrophils = test: Neutrophil chemotaxis assay (Chemotaxis kit, 5 µm filter); assay type: cell-based; conditions: Homo sapiens, Formyl Met-Leu-Phe 1µM + inhibitor 10µM, 1 hr at 37°C, read-out: Neutrophil Migration (% control)
Protocol: As assay was used to test the effects of enkephalinase on neutrophil chemotaxis. A commercially available chemotactic assay (Chemotaxis kit, Neuroprobe, Cabin John, Md) was used and modified as described below. Neutrophils were isolated by sedimentation over dextran from peripheral blood of human donors. A sample of neutrophils is placed over a 5 µm filter in a chemotaxis chamber containing aliquots of test material. Three to six replicates were run for each test for 1 hr. at 37°C. The number of migrating neutrophils in each chamber is then counted. The chemotactic potential is evaluated by the number of cells in five selected unit areas.
Various specific inhibitors of enkephalinase were used to determine the role of enkephalinase in chemotaxis of neutrophils. Chemotactic activity is reported as the total number of neutrophils observed in five fields of the kit membrane under 100X magnification. Thus, the larger the number the more chemotactic was a particular test composition.

ferret trachea [4] = conditions: for potentiation of substance P-induced secretion: substance P 10⁻⁶M; for order of potency for stimulation of secretion: each tachykinin 10⁻⁵M
Protocol: as §4, §5, §6, §7, §8

[5] = system: ferret tracheal smooth muscle; test: Isometric tension of isolated tracheal smooth muscle rings (contraction by peptides, effect of inhibitors); assay type: cell-based; remark: listed apart in the source
Protocol: as §1
as §2, with “Id. […]” for “Id.”
The methods used to excise tracheal tissue, mount and electrically stimulate the tissue were identical to those described above. The responses to tachykinins and to leu-thiorphan, cumulative dose-response curves to substance P (Peninsula Labs), neurokinin A (Peninisula Labs) and neurokinin B (Peninsula Labs) were obtained using concentrations ranging from 10⁻¹¹ M to 10⁻⁵ M in the presence and absence of leu-thiorphan (10⁻⁵ M, 15 min; Squibb Pharmaceutical). Each succeeding concentration of tachykinin was added after the previous contraction had reached a plateau.
as §3
The methods used were the same as those described in Example 7.

[6] = inhibitor 10⁻⁴M, substance P 10⁻⁶M
[7] = presence of phosphoramidon 10⁻⁵M

In the case of CN1[C@@H]2CC[C@H]1C[C@@H](OC(=O)C(CO)c1ccccc1)C2 (some centres unmarked) [atropine], the “effect on SP plus leu-thiorphan-induced contractions” value [1] is reported as “decreased SP plus leu-thiorphan-induced contractions significantly”.
With CC(C)C[C@H](NC(=O)[C@@H](O)[C@H](N)Cc1ccccc1)C(=O)O [bestatin] the “potentiation of the response to electrical field stimulation in the presence of substance P, neurokinin A or neurokinin B” value [2] was “did not” and the “potentiation of substance P-induced secretion” value (ferret trachea [3]; substance P 10⁻⁶M) was “failed to potentiate substance P-induced secretion”.
With C[C@H](CS)C(=O)N1CCC[C@H]1C(=O)O [captopril] the “potentiation of the response to electrical field stimulation in the presence of substance P, neurokinin A or neurokinin B” value [2] was “did not” and the activation at 100 µM (ferret trachea [3]; Mustela putorius, inhibitor 10⁻⁴M (Fig. 4), substance P 10⁻⁶M, not significantly different from control, read-out: potentiation of substance P-induced secretion) was 44 ± 27%.
In the case of CC(=O)N[C@@H](CC(C)C)C(=O)N[C@@H](CC(C)C)C(=O)N[C@H](C=O)CCCNC(=N)N [leupeptin], the “potentiation of the response to electrical field stimulation in the presence of substance P, neurokinin A or neurokinin B” value [2] is reported as “did not” and the “potentiation of substance P-induced secretion” value (ferret trachea [3]; substance P 10⁻⁶M) is reported as “failed to potentiate substance P-induced secretion”.
For CC(C)C[C@H](NP(=O)(O)O[C@@H]1O[C@@H](C)[C@H](O)[C@@H](O)[C@H]1O)C(=O)N[C@@H](Cc1c[nH]c2ccccc12)C(=O)O [phosphoramidon], the “effect on secretory responses to each tachykinin” value (ferret trachea [3]; 10⁻⁵M, 30 min pretreatment, tachykinins 10⁻⁵M) was “significantly increased”, the “substance P-induced increase in flux in inhibitor-treated tissues” value (ferret trachea [3]; inhibitor 10⁻⁵M, substance P 10⁻⁶M) was 357 ± 91.9 pmol bound SO₄/cm²/h and the activity at 10 µM (neutrophils) was 65%.
CSCC[C@H](NC(=O)[C@H](CC(C)C)NC(=O)CNC(=O)[C@H](Cc1ccccc1)NC(=O)[C@H](Cc1ccccc1)NC(=O)[C@H](CCC(N)=O)NC(=O)[C@H](CCC(N)=O)NC(=O)[C@@H]1CCCN1C(=O)[C@H](CCCCN)NC(=O)[C@@H]1CCCN1C(=O)[C@@H](N)CCCNC(=N)N)C(N)=O [substance P] was tested, and the “flux of bound SO₄ above the pre-stimulus baseline” value (ferret trachea [4]; 10 µM) was 155 ± 42%.
For O=C(O)CNC(=O)C(CS)Cc1ccccc1 (centres unmarked) [thiorphan], the “increase in flux of bound SO₄ by the inhibitor by itself” value (ferret trachea [3]; 10⁻⁴M, submucosal side) was 57 ± 17.8 pmol bound SO₄/cm²/h, the minimal effective concentration (ferret trachea [3]; Mustela putorius, substance P 10⁻⁶M, read-out: threshold of potentiation of the secretory response to substance P) was roughly 0.01 µM and the “response to substance P, % of control” value (ferret trachea [3]; [6]) was 502 ± 147%. For the same compound, the “substance P-induced increase in flux of bound SO₄ in inhibitor-pretreated tissue” value (ferret trachea [3]; [6]) was 268.0 ± 58.0 pmol/cm²/h, the “sum of the individual effects as % of the response to substance P in the presence of the inhibitor” value (ferret trachea [3]; test of additivity) was 51% and the “sum of the individual effects of substance P and inhibitor” value (ferret trachea [3]; test of additivity) was 136.2 pmol bound SO₄/cm²/h. For the same compound, the activity at 10 µM (neutrophils) was 29 ± 19%.
With bacitracin the “potentiation of substance P-induced secretion” value (ferret trachea [4]; 10 µg/ml each, bestatin 10⁻⁵M (Fig. 4)) was “failed to potentiate substance P-induced secretion”.
For “bradykinin (RPPGFSPFR; Bradykinin; UniProt P01042 381-389, looked up)”, the “contraction” value ([5]; 10⁻¹¹ to 10⁻⁵ M) was “caused contraction in a dose-dependent fashion”, the relative contractile potency ([5]; absence of enkephalinase inhibitors) was “more potent that lys-bradykinin” and the relative contractile potency ([5]; presence of Leu-thiorphan) was “equally potent”.
In the case of eledoisin, the “order of potency for stimulation of secretion” value (shortened to “order of potency”) (ferret trachea [4]; absence of phosphoramidon) is reported as “substance P> physalaemin=eledoisin=kassinin > neurokinin A” and the “order of potency” value (ferret trachea [4]; [7]) is reported as “Substance P=neurokinin A=physalaemin=eledoisin=kassinin>neurokinin B”.
For kassinin, the “order of potency” value (ferret trachea [4]; absence of phosphoramidon) was “substance P> physalaemin=eledoisin=kassinin > neurokinin A” and the “order of potency” value (ferret trachea [4]; [7]) was “Substance P=neurokinin A=physalaemin=eledoisin=kassinin>neurokinin B”.
With physalaemin the “order of potency” value (ferret trachea [4]; absence of phosphoramidon) was “substance P> physalaemin=eledoisin=kassinin > neurokinin A” and the “order of potency” value (ferret trachea [4]; [7]) was “Substance P=neurokinin A=physalaemin=eledoisin=kassinin>neurokinin B”.
With teprotide the “potentiation of substance P-induced secretion” value (ferret trachea [4]; inhibitor 10⁻⁴M (Fig. 4), not significantly different from control) was 49 ± 39%.
